In ChEMBL document CHEMBL1158623, “In silico characterization of cytisinoids docked into an acetylcholine binding protein” (Bioorg Med Chem Lett, 2010):

The molecules below were run against Neuronal acetylcholine receptor; alpha4/beta2 (Rattus norvegicus, UniProt P09483+P12390) (assay: Displacement of [3H]epibatidine from rat alpha4beta2 nAChR).
Type: protein-complex assay

Chain of Neuronal acetylcholine receptor; alpha4/beta2 (P09483 whole entry): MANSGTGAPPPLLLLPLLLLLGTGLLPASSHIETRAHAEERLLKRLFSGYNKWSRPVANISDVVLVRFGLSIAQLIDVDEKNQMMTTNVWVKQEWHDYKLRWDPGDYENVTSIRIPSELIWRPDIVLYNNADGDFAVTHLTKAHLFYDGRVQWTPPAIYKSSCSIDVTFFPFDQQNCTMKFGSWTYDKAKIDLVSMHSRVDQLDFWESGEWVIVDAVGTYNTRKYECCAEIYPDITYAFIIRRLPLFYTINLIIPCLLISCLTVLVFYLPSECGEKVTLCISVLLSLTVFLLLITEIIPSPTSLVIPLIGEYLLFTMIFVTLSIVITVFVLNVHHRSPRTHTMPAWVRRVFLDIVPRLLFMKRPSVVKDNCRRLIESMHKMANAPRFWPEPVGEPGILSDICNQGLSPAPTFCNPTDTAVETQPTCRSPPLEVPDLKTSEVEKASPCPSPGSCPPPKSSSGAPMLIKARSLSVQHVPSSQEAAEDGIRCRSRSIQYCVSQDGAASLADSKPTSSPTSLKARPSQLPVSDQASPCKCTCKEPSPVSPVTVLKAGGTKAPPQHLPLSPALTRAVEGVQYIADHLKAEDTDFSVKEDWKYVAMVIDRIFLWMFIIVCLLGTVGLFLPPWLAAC
Chain of Neuronal acetylcholine receptor; alpha4/beta2 (P12390 whole entry): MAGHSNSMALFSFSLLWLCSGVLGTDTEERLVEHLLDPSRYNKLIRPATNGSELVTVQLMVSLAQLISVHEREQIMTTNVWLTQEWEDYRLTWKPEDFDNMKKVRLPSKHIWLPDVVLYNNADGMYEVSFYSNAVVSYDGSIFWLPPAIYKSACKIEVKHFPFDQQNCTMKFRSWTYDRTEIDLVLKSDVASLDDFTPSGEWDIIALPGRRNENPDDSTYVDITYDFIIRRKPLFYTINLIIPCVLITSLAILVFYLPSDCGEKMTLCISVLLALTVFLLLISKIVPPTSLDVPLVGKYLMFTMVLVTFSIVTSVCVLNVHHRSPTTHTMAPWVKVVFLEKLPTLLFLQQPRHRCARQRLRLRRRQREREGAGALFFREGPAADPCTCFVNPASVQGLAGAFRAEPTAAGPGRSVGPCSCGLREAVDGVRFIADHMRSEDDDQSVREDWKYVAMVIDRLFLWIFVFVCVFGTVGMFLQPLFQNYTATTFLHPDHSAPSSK

**Q.** `O=c1cccc2n1C[C@@H]1CNC[C@H]2C1` [CYTISINICLINE] was tested. Which IC50 did it give?
**A.** 69.2 nM

**Q.** How did the IC50 turn out when `O=c1c(Br)cc(Br)c2n1C[C@@H]1CNC[C@H]2C1` was run?
**A.** 372 nM

**Q.** How did the IC50 turn out when `O=c1ccc(Br)c2n1C[C@@H]1CNC[C@H]2C1` was run?
**A.** 457 nM

**Q.** `CN1C[C@@H]2C[C@H](C1)c1ccc(Br)c(=O)n1C2` was tested. Which IC50 did it give?
**A.** 102 nM

**Q.** `CN1C[C@@H]2C[C@H](C1)c1cccc(=O)n1C2` was tested. Which IC50 did it give?
**A.** 112 nM

**Q.** How did the IC50 turn out when `O=c1c(I)ccc2n1C[C@@H]1CNC[C@H]2C1` was run?
**A.** 0.245 nM

**Q.** For `O=c1c(Br)ccc2n1C[C@@H]1CNC[C@H]2C1`, which IC50 is on record?
**A.** 0.309 nM
